Experimental findings from publication PMC6792352, “Limited Chemical Structural Diversity Found to Modulate Thyroid Hormone Receptor in the Tox21 Chemical Library” (Environmental Health Perspectives, 2019) are described below.

Where a name gives a salt, the structure may show the parent alone.

The first data set is described as follows: in vitro. Conditions: rat, gh3-tre-luc cells, AC50 (uM) modified / 1000.
Take `CNC(=O)c1c(I)c(C(=O)NCC(=O)Nc2c(I)c(C(=O)O)c(I)c(C(=O)NCCO)c2I)c(I)c(N(C)C(C)=O)c1I` [Ioxaglic acid]: the CC50 – broadly, the concentration that lowers cell viability or growth by half – at 24 h was over 50 µM. The same measure, in the same setting: next, `CC(=O)N(CC(O)CO)c1c(I)c(C(=O)NCCO)c(I)c(C(=O)NCC(O)CO)c1I` (stereo not shown) [Ioxilan]: over 50 µM; `N#Cc1cc(I)c(O)c(I)c1` [Ioxynil]: 49.1 µM; `CC(C)C1CCC(Cc2ccc(Cl)cc2)C1(O)Cn1cncn1` (stereo not shown) [Ipconazole]: 41.7 µM.

Molecule `Nc1c2c(nc3c1CCC3)CCCC2` [Ipidacrine hydrochloride hydrate] registered a CC50 at 24 h of over 50 µM. The same measure, in the same setting: next, `CN(C)/C=N/c1c(I)cc(I)c(CCC(=O)O)c1I` [Ipodate sodium]: over 50 µM; `CC(C)Oc1ccc2c(=O)c(-c3ccccc3)coc2c1` [Ipriflavone]: over 50 µM. `CC(C)NC(=O)N1CC(=O)N(c2cc(Cl)cc(Cl)c2)C1=O` [Iprodione] displayed a CC50 at 24 h of over 90 µM. Same read-out and setting: next, `CC(C)CCCC(C)NC(C)C` (stereo not shown) [Iproheptine]: over 50 µM; `CC(C)NNC(=O)c1ccncc1` [Iproniazid sulfate]: over 50 µM. Same read-out and setting: as for `CC(C)c1ncc([N+](=O)[O-])n1C` [Ipronidazole], the figure is over 50 µM; as for `Cc1ccc(C(C)NC(=O)[C@@H](NC(=O)OC(C)C)C(C)C)cc1` (stereo partly shown) [Iprovalicarb], over 90 µM. The same measure, in the same setting: next, `O=C1c2ccccc2S(=O)(=O)N1CCCCN1CCN(c2ncccn2)CC1` [Ipsapirone]: over 50 µM; `CCCCC1=NC2(CCCC2)C(=O)N1Cc1ccc(-c2ccccc2-c2nnn[nH]2)cc1` [Irbesartan]: over 50 µM.

Molecule `CC(C)(C)c1cc(CCC(=O)OCC(COC(=O)CCc2cc(C(C)(C)C)c(O)c(C(C)(C)C)c2)(COC(=O)CCc2cc(C(C)(C)C)c(O)c(C(C)(C)C)c2)COC(=O)CCc2cc(C(C)(C)C)c(O)c(C(C)(C)C)c2)cc(C(C)(C)C)c1O` [Irganox 1010] had a CC50 at 24 h of over 40 µM. On the same count and under the same terms, next, `CCc1c2c(nc3ccc(OC(=O)N4CCC(N5CCCCC5)CC4)cc13)-c1cc3c(c(=O)n1C2)COC(=O)[C@]3(O)CC` [Irinotecan hydrochloride]: over 50 µM; `Nc1nc(N)nc(-c2cc(Cl)ccc2Cl)n1` [Irsogladine maleate]: over 50 µM.

As to `CC(C)NCC(O)COc1ccccc1-n1cccc1` (stereo not shown) [Isamoltan], the CC50 at 24 h is over 50 µM. Turning to `O=C1Nc2ccccc2C1=O` [Isatin], the CC50 at 24 h is over 90 µM. The same measure, in the same setting: as for `O=C(O)CCCC/C=C(\c1ccccc1)c1cccnc1` [Isbogrel], the figure is over 50 µM. `CC(C)Cn1cnc2c1c(=O)n(C)c(=O)n2C` [Isbufylline]: the CC50 at 24 h was over 50 µM. Take `CN[C@@H]1[C@@H](O)[C@@H](O[C@@H]2[C@@H](O)[C@H](O[C@H]3O[C@H](CN)[C@@H](O)[C@H](O)[C@H]3O)[C@@H](N)C[C@H]2NC(=O)[C@@H](O)CN)OC[C@]1(C)O` [Isepamicin sulfate]: the CC50 at 24 h is over 50 µM. `O=C1O[C@H]([C@H](O)CO)C(O)=C1O` [Isoascorbic acid] returned a CC50 at 24 h of over 90 µM.

`CC1(C)[C@@H]2CC[C@@]1(C)[C@H](O)C2` [Isoborneol] came in with a CC50 at 24 h of over 90 µM. Same read-out and setting: next, `CC(=O)O[C@@H]1C[C@H]2CC[C@]1(C)C2(C)C` [Isobornyl acetate]: over 90 µM; `C=C(C)C(=O)OC1C[C@H]2CC[C@]1(C)C2(C)C` (stereo partly shown) [Isobornyl methacrylate]: over 90 µM. The same measure, in the same setting: as for `CC(C)COC(=O)/C=C/c1ccccc1` [Isobutyl 3-phenylacrylate], the figure is over 90 µM. In the case of `CC(C)COC(=O)COc1cc(Cl)c(Cl)cc1Cl` [Isobutyl (2,4,5-trichlorophenoxy)acetate], the CC50 at 24 h is over 90 µM. Regarding `CC(=O)OCC(C)C` [Isobutyl acetate], the CC50 at 24 h is over 90 µM. Same read-out and setting: as for `C=CC(=O)OCC(C)C` [Isobutyl acrylate], the figure is over 90 µM. On the same count and under the same terms, as for `CC(C)COC(=O)c1ccccc1` [Isobutyl benzoate], the figure is over 90 µM; as for `CC(C)COC(=O)C(C)C` [Isobutyl isobutyrate], over 90 µM; as for `C=C(C)C(=O)OCC(C)C` [Isobutyl methacrylate], over 90 µM. Same read-out and setting: next, `CC(C)COC(=O)c1ccccc1O` [Isobutyl salicylate]: over 90 µM; `CC(C)Cc1ccccc1` [Isobutylbenzene]: over 90 µM. Regarding `CC(C)COC(=O)c1ccc(O)cc1` [Isobutylparaben], the CC50 at 24 h is over 90 µM. The same measure, in the same setting: as for `CC(C)C(=O)OC(=O)C(C)C` [Isobutyric anhydride], the figure is over 90 µM; as for `CC(C)COC(=O)c1ccc(N)cc1` [Isocaine], over 50 µM; as for `Cc1cc(C(=O)NNCc2ccccc2)no1` [Isocarboxazid], over 20 µM.

`CCCCCCCCCCCCCCCCCC(=O)OCCCCCCCCCCCCCC(C)C` [Isocetyl stearate]: the CC50 at 24 h is over 90 µM. In turn, `Clc1ccc(C(Cn2ccnc2)OCc2c(Cl)cccc2Cl)c(Cl)c1` (stereo not shown) [Isoconazole] registered a CC50 at 24 h of 13.8 µM. Still for that read-out and setting: next, `CC(=O)C1(C)CC2=C(CCCC2(C)C)CC1C` (stereo not shown) [Isocyclemone E]: over 90 µM; `CC1=CC(C)C(C=O)C(C)C1` (stereo not shown) [Isocyclocitral]: over 90 µM.

Regarding `C=CC(=O)OCCCCCCCC(C)C` [Isodecyl acrylate], the CC50 at 24 h was over 90 µM. `CC(C)CCCCCCCOP(=O)(Oc1ccccc1)Oc1ccccc1` [Isodecyl diphenyl phosphate]: the CC50 at 24 h was 27.3 µM. The molecule `C=C(C)C(=O)OCCCCCCCC(C)C` [Isodecyl methacrylate] had a CC50 at 24 h of over 90 µM.

For `CCC(NC(C)C)C(O)c1ccc(O)c(O)c1` (stereo not shown) [Isoetharine mesylate], the CC50 at 24 h was over 50 µM. `C/C=C/c1ccc(O)c(OC)c1` [Isoeugenol] returned a CC50 at 24 h of over 90 µM. The same measure, in the same setting: next, `CC(=O)OCC(=O)[C@@]1(O)CC[C@H]2[C@@H]3CCC4=CC(=O)C=C[C@]4(C)[C@@]3(F)[C@@H](O)C[C@@]21C` [Isoflupredone acetate]: over 20 µM; `FC(F)OC(Cl)C(F)(F)F` (stereo not shown) [Isoflurane]: over 90 µM; `CC1(C)C2C(=O)CCC(C)(C)[C@]23CC[C@H]1C3` (stereo partly shown) [Isolongifolanone]: over 90 µM. Still for that read-out and setting: as for `OCC(O)[C@@H](O)[C@H](O)[C@H](O)CO[C@H]1O[C@H](CO)[C@@H](O)[C@H](O)[C@H]1O` (stereo partly shown) [Isomalt], the figure is over 90 µM; as for `CNC(C)CCC=C(C)C` (stereo not shown) [Isometheptene hydrochloride], over 50 µM; as for `NC(=O)c1ccncc1` [Isonicotinamide], over 100 µM. On the same count and under the same terms, next, `O=C(O)c1ccncc1` [Isonicotinic acid]: over 90 µM; `CC(C)CCCCCCN` [Isononanamine]: over 90 µM; `CC(C)CCCCCCCCCCCCCCC(=O)O` [Isooctadecanoic acid]: over 90 µM.

`CC(C)CCCCCOC(=O)CS` [Isooctyl 2-mercaptoacetate] showed a CC50 at 24 h of over 90 µM. The same measure, in the same setting: next, `CC(C)CCCCCOC(=O)CCS` [Isooctyl 3-mercaptopropionate]: over 90 µM; `C=CC(=O)OCCCCCC(C)C` [Isooctyl acrylate]: over 100 µM; `CC(C)CCO` [Isopentyl alcohol]: over 90 µM. In the case of `CC(C)CCOC(=O)c1ccccc1` [Isopentyl benzoate], the CC50 at 24 h was over 90 µM. The same measure, in the same setting: as for `CCCC(=O)OCCC(C)C` [Isopentyl butyrate], the figure is over 90 µM. On the same count and under the same terms, next, `CC1(C)CC(N)CC(C)(CN)C1` (stereo not shown) [Isophorone diamine]: over 90 µM.

Molecule `CC1(C)CC(N=C=O)CC(C)(CN=C=O)C1` (stereo not shown) [Isophorone diisocyanate] gave a CC50 at 24 h of over 90 µM. Same read-out and setting: as for `CC1=CC(=O)CC(C)(C)C1` [Isophorone], the figure is over 90 µM. `C=CC(C)(O)CCCC(C)CCCC(C)CCCC(C)C` (stereo not shown) [Isophytol] came in with a CC50 at 24 h of over 90 µM. The same measure, in the same setting: next, `C=CC(=C)C` [Isoprene]: over 90 µM; `CC(C)[N+](C)(CCC(C(N)=O)(c1ccccc1)c1ccccc1)C(C)C` [Isopropamide]: over 20 µM.

In turn, `CC(C)O` [Isopropanol] displayed a CC50 at 24 h of over 100 µM.

Still in this data set, the particulars now being: rat, gh3-tre-luc cells, AC50 (uM) modified / 1000, Tox21_110001=Tox21_200234; viability, 1 nM T3 present, 24 h.
In turn, `O=C=NC1CCCCC1` [Isocyanatocyclohexane] displayed a CC50 at 24 h of over 90 µM.

Still in this data set, the particulars now being: rat, gh3-tre-luc cells, AC50 (uM) modified / 1000, Tox21_110001=Tox21_202228; viability, 1 nM T3 present, 24 h.
`CCCN(CCC)c1c([N+](=O)[O-])cc(C(C)C)cc1[N+](=O)[O-]` [Isopropalin] showed a CC50 at 24 h of 89.1 µM. That is a double-digit micromolar value.

The same data set, now with this note: rat, gh3-tre-luc cells, AC50 (uM) modified / 1000, Tox21_110001=Tox21_202411; viability, 1 nM T3 present, 24 h.
The molecule `CC(C)CON=O` [Isobutyl nitrite] registered a CC50 at 24 h of over 90 µM.

The data set is the same for the next values; noted with them: rat, gh3-tre-luc cells, AC50 (uM) modified / 1000, Tox21_110001=Tox21_300422; viability, 1 nM T3 present, 24 h.
Consider `CCCN(CCC)c1c([N+](=O)[O-])cc(C(C)C)cc1[N+](=O)[O-]` [Isopropalin], for which the midpoint of cytotoxicity, the CC50 at 24 h, lay at 45.3 µM.

Still in this data set, the particulars now being: rat, gh3-tre-luc cells, AC50 (uM) modified / 1000, Tox21_110001=Tox21_301328; viability, 1 nM T3 present, 24 h.
Regarding `COP(N)(=S)Oc1ccccc1C(=O)OC(C)C` (stereo not shown) [Isocarbophos], the CC50 at 24 h is over 90 µM.

The same data set, now with this note: rat, gh3-tre-luc cells, AC50 (uM) modified / 1000, Tox21_110001=Tox21_301361; viability, 1 nM T3 present, 24 h.
With `CNC(=O)Oc1ccccc1C(C)C` [Isoprocarb], the CC50 at 24 h is over 90 µM.

The same data set, now with this note: rat, gh3-tre-luc cells, AC50 (uM) modified / 1000, Tox21_110001=Tox21_301429; viability, 1 nM T3 present, 24 h.
`ClC1=C(Cl)[C@]2(Cl)[C@H]3[C@H]([C@H]4C=C[C@@H]3C4)[C@@]1(Cl)C2(Cl)Cl` [Isodrin]: half-maximal cytotoxicity (CC50 at 24 h) was put at 66.4 µM.

Staying with this data set, now noted: rat, gh3-tre-luc cells, AC50 (uM) modified / 1000, Tox21_110001=Tox21_302219; viability, 1 nM T3 present, 24 h.
Regarding `CCOP(=S)(NC(C)C)Oc1ccccc1C(=O)OC(C)C` (stereo not shown) [Isofenphos], the CC50 at 24 h is 78.7 µM. That is a double-digit micromolar value.

The same data set, now with this note: rat, gh3-tre-luc cells, AC50 (uM) modified / 1000, Tox21_110001=Tox21_302863; viability, 1 nM T3 present, 24 h.
As for `CC(C)CON=O` [Isobutyl nitrite], the CC50 at 24 h was over 30 µM.
